From patent US11066363B2, “Substituted 6,11-dihydro-5H-benzo[B]carbazoles as inhibitors of ALK and SRPK” (Dana-Farber Cancer Institute, Inc., priority 2015, dated 2021)

Legend:
[1] = tested on: EML4-ALK wt transformed Ba/F3 cells; assay: Ba/F3 single point inhibition assay (MTS); type: cell-based; conditions: single dose 1 μM, 72 hours
Source text: (§1) The MTS assay is a colorimetric method for determining the number of viable cells that is based on the bioreduction of MTS by cells to a formazan product that is soluble in cell culture medium and can be detected spectrophotometrically. […] All experimental points were set up in six wells and all experiments were repeated at least three times. […] The curves were fitted using a non-linear regression model with a sigmoidal dose response.

[2] = tested on: EML4-ALK^G1202R transformed Ba/F3 cells; assay: Ba/F3 single point inhibition assay (MTS); type: cell-based; conditions: single dose 1 μM, 72 hours
Source text: as §1

[3] = target: SRPK1 (Homo sapiens (Human), UniProt Q96SB4); assay: SRPK1 inhibitory activity; type: biochemical
[4] = target: SRPK2 (Homo sapiens (Human), UniProt P78362); assay: SRPK2 inhibitory activity; type: biochemical
[5] = target: EML4-ALK C1156Y transformed Ba/F3 cells (Homo sapiens, UniProt Q9UM73, C1156Y, cells depend on it); assay: Ba/F3 dose escalation MTS viability assay; type: cell-based; conditions: 72 hours
Source text: as §1
(§2) Untransduced Ba/F3 control was used as a cytotoxicity control.

[6] = target: EML4-ALK L1152R transformed Ba/F3 cells (Homo sapiens, UniProt Q9UM73, L1152R, cells depend on it); assay: Ba/F3 dose escalation MTS viability assay; type: cell-based; conditions: 72 hours
Source text: as §1, §2

[7] = target: EML4-ALK G1202R transformed Ba/F3 cells (Homo sapiens, UniProt Q9UM73, G1202R, cells depend on it); assay: Ba/F3 dose escalation MTS viability assay; type: cell-based; conditions: 72 hours
Source text: as §1, §2

[8] = target: EML4-ALK G1269A transformed Ba/F3 cells (Homo sapiens, UniProt Q9UM73, G1269A, cells depend on it); assay: Ba/F3 dose escalation MTS viability assay; type: cell-based; conditions: 72 hours
Source text: as §1, §2

[9] = target: EML4-ALK S1206Y transformed Ba/F3 cells (Homo sapiens, UniProt Q9UM73, S1206Y, cells depend on it); assay: Ba/F3 dose escalation MTS viability assay; type: cell-based; conditions: 72 hours
Source text: as §1, §2

[10] = target: EML4-ALK^WT transformed Ba/F3 cells (Homo sapiens, UniProt Q9UM73); assay: Ba/F3 dose escalation MTS viability assay; conditions: read-out: IC50 wt, 72 hours
Source text: as §1, §2

[11] = target: EML4-ALK L1196M transformed Ba/F3 cells (Homo sapiens, UniProt Q9UM73, L1196M, cells depend on it); assay: Ba/F3 dose escalation MTS viability assay; conditions: read-out: IC50 L1196M, 72 hours
Source text: as §1, §2

SMILES | Percent viability of untreated control, wt [1] | Percent viability of untreated control, G1202R [2] | IC50 [3] | other results
CCc1cc2c(cc1-c1cnn(C)c1)C(C)(C)c1[nH]c3cc(C#N)ccc3c1C2=O [Compound 7, 9-ethyl-6,6-dimethyl-8-(1-methyl-1H-pyrazol-4-yl)-11-oxo-6,11-dihydro-5H-benzo[b]carbazole-3-carbonitrile] | 1% | 1% | 3.01 nM | IC50 [4]: 12.4 nM
CCc1cc2c(cc1-c1cn[nH]c1)C(C)(C)c1[nH]c3cc(C#N)ccc3c1C2=O [Compound 8, 9-ethyl-6,6-dimethyl-11-oxo-8-(1H-pyrazol-4-yl)-6,11-dihydro-5H-benzo[b]carbazole-3-carbonitrile] | 0% | 1% |  | 
CCc1cc2c(cc1-c1cc[nH]n1)C(C)(C)c1[nH]c3cc(C#N)ccc3c1C2=O [Compound 9, 9-ethyl-6,6-dimethyl-11-oxo-8-(1H-pyrazol-3-yl)-6,11-dihydro-5H-benzo[b]carbazole-3-carbonitrile] | 1% | 1% | 1.15 nM | 
CCc1cc2c(cc1-c1ccoc1)C(C)(C)c1[nH]c3cc(C#N)ccc3c1C2=O [Compound 11, 9-ethyl-8-(furan-3-yl)-6,6-dimethyl-11-oxo-6,11-dihydro-5H-benzo[b]carbazole-3-carbonitrile] | 6% | 8% |  | 
CCc1cc2c(cc1-c1cccs1)C(C)(C)c1[nH]c3cc(C#N)ccc3c1C2=O [Compound 12, 9-ethyl-6,6-dimethyl-11-oxo-8-(thiophen-2-yl)-6,11-dihydro-5H-benzo[b]carbazole-3-carbonitrile] | 12% | 10% |  | 
CCc1cc2c(cc1-c1ccncc1)C(C)(C)c1[nH]c3cc(C#N)ccc3c1C2=O [Compound 14] | 2% | 5% | 2.61 nM | 
CCc1cc2c(cc1-c1cccnc1)C(C)(C)c1[nH]c3cc(C#N)ccc3c1C2=O [Compound 15, 9-ethyl-6,6-dimethyl-11-oxo-8-(pyridin-3-yl)-6,11-dihydro-5H-benzo[b]carbazole-3-carbonitrile] | 1% | 3% |  | 
CCc1cc2c(cc1-c1cncnc1)C(C)(C)c1[nH]c3cc(C#N)ccc3c1C2=O [Compound 16, 9-ethyl-6,6-dimethyl-11-oxo-8-(pyrimidin-5-yl)-6,11-dihydro-5H-benzo[b]carbazole-3-carbonitrile] | 3% | 4% | 2.53 nM | IC50 [4]: 12.5 nM
CCc1cc2c(cc1N1CCC(N(C)C)CC1)C(C)(C)c1[nH]c3cc(C#N)ccc3c1C2=O [Compound 17, 8-(4-(dimethylamino)piperidin-1-yl)-9-ethyl-6,6-dimethyl-11-oxo-6,11-dihydro-5H-benzo[b]carbazole-3-carbonitrile] | 2% | 9% | > 1000 nM | IC50 [5]: 2 nM; IC50 [6]: 695 nM; IC50 [7]: 478 nM; IC50 [8]: 3 nM; IC50 [9]: 2 nM; IC50 [10]: 2 nM; IC50 [11]: 10 nM
CCc1cc2c(cc1N1CCNCC1)C(C)(C)c1[nH]c3cc(C#N)ccc3c1C2=O [Compound 18, 9-ethyl-6,6-dimethyl-11-oxo-8-(piperazin-1-yl)-6,11-dihydro-5H-benzo[b]carbazole-3-carbonitrile] | 1% | 7% |  | 
CCc1cc2c(cc1N1CCN(C)CC1)C(C)(C)c1[nH]c3cc(C#N)ccc3c1C2=O [Compound 19, 9-ethyl-6,6-dimethyl-8-(4-methylpiperazin-1-yl)-11-oxo-6,11-dihydro-5H-benzo[b]carbazole-3-carbonitrile] | 0.1% | 0.1% | 2.66 nM | IC50 [4]: 8.57 nM
CCc1cc2c(cc1N1CCOCC1)C(C)(C)c1[nH]c3cc(C#N)ccc3c1C2=O [Compound 20, 9-ethyl-6,6-dimethyl-8-morpholino-11-oxo-6,11-dihydro-5H-benzo[b]carbazole-3-carbonitrile] | 2% | 4% |  | 
CCc1cc2c(cc1C#N)C(C)(C)c1[nH]c3cc(C#N)ccc3c1C2=O [Compound 21, 9-ethyl-6,6-dimethyl-11-oxo-6,11-dihydro-5H-benzo[b]carbazole-3,8-dicarbonitrile] | 19% | 28% |  | 
CCc1cc2c(cc1[C@@H](O)CO)C(C)(C)c1[nH]c3cc(C#N)ccc3c1C2=O [Compound 22, (R)-8-(1,2-dihydroxyethyl)-9-ethyl-6,6-dimethyl-11-oxo-6,11-dihydro-5H-benzo[b]carbazole-3-carbonitrile] | 4% | 39% |  | 
CCc1cc2c(cc1[C@H](O)CO)C(C)(C)c1[nH]c3cc(C#N)ccc3c1C2=O [Compound 23, (S)-8-(1,2-dihydroxyethyl)-9-ethyl-6,6-dimethyl-11-oxo-6,11-dihydro-5H-benzo[b]carbazole-3-carbonitrile] | 4% |  |  | 
CCc1cc2c(cc1C(=O)O)C(C)(C)c1[nH]c3cc(C#N)ccc3c1C2=O [Compound 24, 3-cyano-9-ethyl-6,6-dimethyl-11-oxo-6,11-dihydro-5H-benzo[b]carbazole-8-carboxylic acid] | 57% | 39% |  | 
CCc1cc2c(cc1/C=C/CN1CCOCC1)C(C)(C)c1[nH]c3cc(C#N)ccc3c1C2=O [Compound 25, (E)-9-ethyl-6,6-dimethyl-8-(3-morpholinoprop-1-en-1-yl)-11-oxo-6,11-dihydro-5H-benzo[b]carbazole-3-carbonitrile] | 93% | 103% |  | 
CCc1cc2c(cc1-c1ccc(O)nc1)C(C)(C)c1[nH]c3cc(C#N)ccc3c1C2=O [Compound 26, 9-ethyl-8-(6-hydroxypyridin-3-yl)-6,6-dimethyl-11-oxo-6,11-dihydro-5H-benzo[b]carbazole-3-carbonitrile] | 4% | 12% |  | 
CCc1cc2c(cc1-c1ccc(N)nc1)C(C)(C)c1[nH]c3cc(C#N)ccc3c1C2=O [Compound 27, 8-(6-aminopyridin-3-yl)-9-ethyl-6,6-dimethyl-11-oxo-6,11-dihydro-5H-benzo[b]carbazole-3-carbonitrile] | 12% | 42% |  | 
CCc1cc2c(cc1N(C)CCN(C)C)C(C)(C)c1[nH]c3cc(C#N)ccc3c1C2=O [Compound 28, 8-((2 (dimethylamino)ethyl)(methyl)amino)-9-ethyl-6,6-dimethyl-11-oxo-6,11-dihydro-5H-benzo[b]carbazole-3-carbonitrile] | 2% | 7% |  | 
CCc1cc2c(cc1-c1cnn(CC(=O)NC)c1)C(C)(C)c1[nH]c3cc(C#N)ccc3c1C2=O [Compound 33, 2-(4-(3-cyano-9-ethyl-6,6-dimethyl-11-oxo-6,11-dihydro-5H-benzo[b]carbazol-8-yl)-1H-pyrazol-1-yl)-N-methylacetamide] | 0% | 0% |  | 
CCc1cc2c(cc1-c1cnn(C(C)(C)C(=O)N(C)C)c1)C(C)(C)c1[nH]c3cc(C#N)ccc3c1C2=O [Compound 35, 2-(4-(3-cyano-9-ethyl-6,6-dimethyl-11-oxo-6,11-dihydro-5H-benzo[b]carbazol-8-yl)-1H-pyrazol-1-yl)-N,N,2-trimethylpropanamide] | 0% | 0% |  | 
CCc1cc2c(cc1-c1cnn(C(=O)N(C)C)c1)C(C)(C)c1[nH]c3cc(C#N)ccc3c1C2=O [Compound 36, 4-(3-cyano-9-ethyl-6,6-dimethyl-11-oxo-6,11-dihydro-5H-benzo[b]carbazol-8-yl)-N,N-dimethyl-1H-pyrazole-1-carboxamide] | 0% | 0% | 4.75 nM | IC50 [4]: 23.6 nM
CCc1cc2c(cc1-c1ccc(S(=O)(=O)F)cc1)C(C)(C)c1[nH]c3cc(C#N)ccc3c1C2=O [Compound 38, 4-(3-cyano-9-ethyl-6,6-dimethyl-11-oxo-6,11-dihydro-5H-benzo[b]carbazol-8-yl)benzenesulfonyl fluoride] |  |  | 41 nM | 
